In paper PMC6309922, “(ADP-ribosyl)hydrolases: Structural Basis for Differential Substrate Recognition and Inhibition” (Cell Chemical Biology, 2018):
Where two headings read alike, the source gives them in different places. Marks after values point to notes of the source that are not given here.

Tests used:
hARH1 [1] = target: T1, hARH1 (Homo sapiens, UniProt P54922); experiment: Enzyme kinetics and inhibition assay with fluorogenic substrate TFMU-ADPr; assay type: biochemical; details: for IC50: 20 μM TFMU-ADPr as substrate, triplicate
T1 construct: made in house; host or cells: E. coli Rosetta (DE3)
Protocol: (§1) Reactions were performed as described in ([Drown et al., 2018]). Briefly, reactions were carried out in 384-well plates using 50 mM Na2HPO4 (pH 7.4), 10 mM MgCl2, 5 mM DTT and indicated amounts of TFMU-ADPr as substrate. After shaking for 5 s, fluorescence was recorded at 5 s intervals for 15 min on a Molecular Devices SpectraMax M3 microplate reader (reader settings: λEx 385 nm, λEm 502 nm, λcutoff 495 nm, 6 reads/well, low gain). Initial reaction rates were determined by fitting the linear portions of reaction progress curves. Initial rates were plotted against substrate concentration and fit to the Michaelis-Menton equation using a non-linear curve-fitting algorithm in GraphPad Prism 6.
(§2) For inhibitor studies enzymes and inhibitor were pre-incubated for 5 min at RT before addition of substrate. Percent inhibition was calculated with the no enzyme and no inhibitor reactions as positive and negative controls, respectively. Dose-response curves were fit using GraphPad Prism 6.

hARH1 [2] = target: T1, hARH1; experiment: Removal of Arg-ADP-ribosylation from HeLa cell extracts (32P autoradiography); assay type: biochemical; details: arginine ADP-ribosylated whole cell lysate as substrate; 1-1,000 μM compound
Protocol: In vitro modification of proteins from HeLa cell extracts by mARTC2.2 recombinant protein was performed, with minor modifications, as described earlier ([Palazzo et al., 2016]). Briefly, cells were grown to confluence on two 10-cm dishes, washed thrice with 50 mM TrisHCl (pH 7.5) and 200 mM NaCl and lysed in 800 μL of 50 mM Tris-HCl pH 7.5, 150 mM NaCl, 0.5% Triton X-100, 0.2 mM DTT and 1 μM olaparib at 4°C supplemented with cOmplete™ EDTA-free protease inhibitor (Roche). The cell extract was clarified by centrifugation. 12 uL of extract per reaction were supplemented with 15 mM MgCl2, 1 μM mARTC2.2 and 1 μCi ^32P-NAD^+ and incubated for 15 min at 30°C. Lysates were further incubated in presence of hydrolases for 45 min at 30°C. Reactions were stopped by addition of LDS sample buffer (Life Technologies) and incubation at 95°C for 3 min. Samples were then analysed by SDS-PAGE and autoradiography. For inhibitor study the hARH1 was pre-incubated with indicated amount of inhibitor for 5 min at RT.

LchARH3 [3] = target: T2, LchARH3 (Latimeria chalumnae, UniProt H3BCW1); assay type: biochemical; details: for inhibitory potential against ARH3 (in words): serine MARylated histone H3 peptide as substrate, 1-1,000 μM compound; for support of hydrolysis of Ser-ADPr and PAR by metal (in words): MgII-stripped enzyme, 100 μM metal salt
T2 construct: LchARH3 (GenBank: XP_005988572; aa residues 10-362); made in house; host or cells: E. coli Rosetta (DE3)
T2 sequence (H3BCW1 10-356 limits assumed): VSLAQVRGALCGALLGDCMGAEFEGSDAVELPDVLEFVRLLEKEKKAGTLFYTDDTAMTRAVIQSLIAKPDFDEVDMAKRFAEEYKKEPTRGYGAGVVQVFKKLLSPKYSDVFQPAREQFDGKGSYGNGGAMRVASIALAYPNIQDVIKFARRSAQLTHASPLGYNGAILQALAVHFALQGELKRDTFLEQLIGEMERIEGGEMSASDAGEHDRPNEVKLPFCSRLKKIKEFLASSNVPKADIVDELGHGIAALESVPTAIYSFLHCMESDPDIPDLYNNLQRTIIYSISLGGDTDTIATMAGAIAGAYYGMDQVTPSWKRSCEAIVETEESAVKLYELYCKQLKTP
Protocol: (§3) ARH3 activity assays were performed essentially as described ([Fontana et al., 2017]). Briefly, H3 peptide (aa 1-20, biotinylated) was modified by incubation with 0.5 μM PARP1, 1 μM HPF1 and activated DNA (Trevigen) in assay buffer (50 mM TrisHCl [pH 8], 200 mM NaCl, 2 mM MgCl2, 1 mM DTT, 10 μM NAD^+ and 1 μCi ^32P-NAD^+). Reactions were incubated for 30 min at 30°C and stopped by addition of 1 μM olaparib. Reaction were further incubated in presence of 1 μM hydrolase for 1 h at 30°C. Reactions were stopped by addition of LDS sample buffer (Life Technologies) and incubation at 95°C for 3 min. Samples were then analysed by SDS-PAGE, immunoblot and autoradiography. For inhibitor study the ARH3 was pre-incubated with indicated amount of inhibitor for 5 min at RT.

hARH3 [4] = target: T3, hARH3 (Homo sapiens, UniProt Q9NX46); experiment: Enzyme kinetics and inhibition assay with fluorogenic substrate TFMU-ADPr; assay type: biochemical; details: triplicate; for IC50: 20 μM TFMU-ADPr as substrate
T3 construct: made in house; host or cells: E. coli Rosetta (DE3)
T3 sequence (Q9NX46 1-363): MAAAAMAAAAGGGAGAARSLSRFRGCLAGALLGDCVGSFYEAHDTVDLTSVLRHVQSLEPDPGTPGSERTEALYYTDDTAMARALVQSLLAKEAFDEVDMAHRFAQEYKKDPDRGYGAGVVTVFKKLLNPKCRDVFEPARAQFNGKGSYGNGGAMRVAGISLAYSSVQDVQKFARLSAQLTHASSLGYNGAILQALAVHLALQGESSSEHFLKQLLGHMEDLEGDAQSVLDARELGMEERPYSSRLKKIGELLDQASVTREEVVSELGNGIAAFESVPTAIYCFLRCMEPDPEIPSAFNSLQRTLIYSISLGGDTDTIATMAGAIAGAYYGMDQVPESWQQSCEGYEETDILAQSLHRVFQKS
Protocol: as §1, §2

hARH3 [5] = target: T3, hARH3; experiment: De-modification of Ser-ADP-ribosyl H3 peptide and degradation of PAR (32P autoradiography); assay type: biochemical; details: for support of hydrolysis of Ser-ADPr and PAR by metal (in words): MgII-stripped enzyme, 100 μM metal salt
Protocol: as §3

hARH3 [6] = target: T3, hARH3; parameters: method as in Drown et al., 2018; details: in situ generation of Arg-ADPr; ref Drown et al., 2018; cited from earlier work
hARH3 [7] = target: T3, hARH3; experiment: Differential scanning fluorimetry (DSF) with metal salts, MgII-depleted enzyme; assay type: binding; details: for TM / ΔTM: 100 μM metal salt; for TM: n = 3; for ΔTM: ΔTM = TM (salt) - TM (apo)
LchARH3 [8] = target: T2, LchARH3; experiment: biochemical; assay type: binding; details: for TM / ΔTM: 100 μM metal salt; for TM: n = 6; for ΔTM: ΔTM = TM (salt) - TM (apo)
Protocol: LchARH3 WT was purified as described above and dialysed against 50 mM TrisHCl (pH 8), 200 mM NaCl, 20 mM EDTA, 1 mM DTT and 5% (v/v) glycerol. EDTA was removed by dialysing twice against 50 mM TrisHCl (pH 8), 200 mM NaCl, 1 mM DTT and 5% (v/v) glycerol. Each dialysis step was carried out with a minimum 1:1,000 ratio of sample to buffer. Only samples with purity >90% (as assessed by SDS-PAGE) were used for subsequent DSF experiments.
Assays were performed essentially as described earlier ([Vivoli et al., 2014]). Briefly, 10 μM LchARH3 wt EDTA-treated, 10x SYPRO® Orange (ThermoFisher Scientific) and indicated amounts of metal salts in assay buffer (50 mM TrisHCl [pH 8], 200 mM NaCl and 1 mM DTT) were thermal denaturated in MicroAmp® Fast plates (Life Technologies) in a StepOne qPCR instrument (ThermoFisher Scientific). The initial temperature of 24°C was held for 2.5 min, followed by a ramp to 97.5°C at 0.5°C/45 sec and then 2 min pause at 98°C. Curves were fit using GraphPad Prism 6. For analysis recorded data were cropped two data points after recorded fluorescence signal maximum and the resulting curves fitted using the Boltzman equation F=BOTTOM+(TOP−BOTTOM)/1+e^(TM−T/SLOPE)
with TM, melting temperature; T, temperature; SLOPE, steepness of curve. For the inference of the binding constant the determined TM’s were plotted and analysed using a single binding site model: TM=BOTTOM+((TOP−BOTTOM)∗(1−(P−Kd−M+(P+M+Kd)^2∗(4∗P∗M)/2P))) with P, protein concentration; M, metal salt concentration; Kd dissociation constant.

[9] = DSF, 16 metal salt dilutions, single-site ligand-binding model, triplicate ± SD, read-out: Kd
[10] = DSF, rounded, read-out: Kd of magnesium on its own

T1 sequence (P54922 whole entry): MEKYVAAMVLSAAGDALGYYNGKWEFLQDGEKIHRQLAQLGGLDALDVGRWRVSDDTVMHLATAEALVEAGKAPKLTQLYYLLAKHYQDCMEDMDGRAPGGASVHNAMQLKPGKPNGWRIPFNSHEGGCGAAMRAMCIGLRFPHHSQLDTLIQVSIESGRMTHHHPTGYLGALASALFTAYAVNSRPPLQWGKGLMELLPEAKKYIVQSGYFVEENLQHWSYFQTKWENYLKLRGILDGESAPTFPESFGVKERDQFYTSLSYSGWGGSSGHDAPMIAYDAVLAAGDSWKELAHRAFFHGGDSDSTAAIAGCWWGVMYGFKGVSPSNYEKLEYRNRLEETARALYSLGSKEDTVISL

SMILES | TM (hARH3 [7]) [°C] | ΔTM (hARH3 [7]) | TM (LchARH3 [8]) [°C] | ΔTM (LchARH3 [8]) | further results
Nc1ncnc2c1ncn2[C@@H]1O[C@H](CO[P@](=O)(O)O[P@@](=O)(O)OC[C@H]2NC[C@H](O)[C@@H]2O)[C@@H](O)[C@H]1O [ADP-HPD, adenosine diphosphate (hydroxymethyl)pyrrolidinediol] | – | – | – | – | inhibition of hARH1 (in words) (hARH1 [1]; IC50 conditions, 20 μM TFMU-ADPr): no inhibition; inhibitory potential against hARH1 (in words) (hARH1 [2]): only mild activity; inhibitory potential against ARH3 (in words) (LchARH3 [3]): inhibited
Nc1ncnc2c1ncn2C1OC(COP(=O)(O)OP(=O)(O)OCC2CC(O)CN2)C(O)C1O (centres unmarked) [ADP-HPM] | – | – | – | – | IC50 (hARH1 [1]): 164 µM; inhibitory potential against hARH1 (in words) (hARH1 [2]): only minor inhibitor potential; inhibitory potential against ARH3 (in words) (LchARH3 [3]): only minor inhibitor potential
Nc1ncnc2c1ncn2C1OC(COP(=O)(O)OP(=O)(O)OCC2OC(O)C(O)C2O)C(O)C1O (centres unmarked) [ADPr, ADP-ribose] | – | – | – | – | IC50 (hARH1 [1]): 228 µM; IC50 (hARH3 [4]): 3.2 µM; Ki (hARH3 [4]; TFMU-ADPr substrate): 1.08 ± 0.08 µM; inhibitory potential against hARH1 (in words) (hARH1 [2]): only mild activity; inhibitory potential against ARH3 (in words) (hARH3 [5]; serine MARylated histone H3 peptide as substrate, 1-1,000 μM compound): inhibited; inhibitory potential against ARH3 (in words) (LchARH3 [3]): inhibited
NC(=NCCC[C@H](N)C(=O)O)N[C@H]1O[C@H](COP(=O)(O)OP(=O)(O)OC[C@H]2O[C@@H](n3cnc4c(N)ncnc43)[C@H](O)[C@@H]2O)[C@@H](O)[C@H]1O [Arg-ADPr, arginine-ADP-ribose] | – | – | – | – | inhibition of hARH3 (in words) (hARH3 [6]): potent, cellular inhibitor of hARH3
[Ca+2] [CaCl2, Calcium chloride dehydrate] | 50.1 ± 0.08 | 3.4 ^d °C | 44.4 ± 0.08 | 4.2 ^d °C | IC50 (hARH3 [4]): 13.7 µM; Kd (hARH3 [7]; [9]): 266 ± 42 µM; Kd (LchARH3 [8]; [9]): 431 ± 68 µM; inhibition of ARH3 by calcium (in words) (LchARH3 [3]; de-MARylation assay in presence of 1 mM MgCl2 or 1 mM MnCl2, 1-2,000 μM CaCl2): inhibitor of magnesium-, but not manganese-, supplemented ARH3
O.O.O.O.O.O.[Cl-].[Cl-].[Co+2] [CoCl2, Cobalt(II) chloride hexahydrate] | 46.7 ± 0.09 | 0.0 °C | 39.6 ± 0.28 | −0.6 °C | –
O.O.O.O.O.O.[Cl][Cr]([Cl])[Cl] [CrCl3, Chromium(III) chloride hexahydrate] | 46.5 ± 0.04 | −0.3 °C | 40.1 ± 0.21 | −0.1 °C | –
[Cl][Cu][Cl] [CuCl2, Copper(II) chloride] | 40.5 ± 0.10 | −6.2 ^d °C | 39.0 ± 0.21 | −1.2 ^d °C | –
[Cl-].[Li+] [LiCl, Lithium chloride] | 46.6 ± 0.15 | −0.1 °C | 40.1 ± 0.16 | −0.1 °C | –
[Mg+2] [MgCl2, Magnesium chloride hexahydrate] | 46.7 ± 0.11 | 0.0 °C | 41.4 ± 0.17 | 1.3 ^d °C | Kd (hARH3 [7]; [9]): 5410 ± 322 µM; Kd (hARH3 [7]; [10]): ~5400 µM; Kd (LchARH3 [8]; [9]): 2300 ± 257 µM; Kd (LchARH3 [8]; [10]): ~2300 µM; support of hydrolysis of Ser-ADPr and PAR by metal (in words) (hARH3 [5]): able to support hydrolysis of Ser-ADPr and PAR; apparent concentration needed to restore activity (LchARH3 [3]; EDTA-treated LchARH3, 1-1000 µM MgCl2): ~50 µM; support of hydrolysis of Ser-ADPr and PAR by metal (in words) (LchARH3 [3]): able to support hydrolysis of Ser-ADPr and PAR
[Mn+2] [MnCl2, Manganese(II) chloride tetrahydrate] | 52.6 ± 0.09 | – | 51.5 ± 0.23 | – | Kd (hARH3 [7]): 208 ± 12 µM; Kd (LchARH3 [8]): 175 ± 24 µM; support of hydrolysis of Ser-ADPr and PAR by metal (in words) (hARH3 [5]): able to support hydrolysis of Ser-ADPr and PAR; support of hydrolysis of Ser-ADPr and PAR by metal (in words) (LchARH3 [3]): able to support hydrolysis of Ser-ADPr and PAR
O.O.O.O.O.O.[Cl][Ni][Cl] [NiCl2, Nickel(II) chloride hexahydrate] | 46.4 ± 0.09 | −0.3 °C | 40.7 ± 0.22 | 0.5 °C | –
[Cl-].[Cl-].[Zn+2] [ZnCl2, Zinc chloride] | 44.1 ± 0.07 | −2.6 ^d °C | 37.4 ± 0.25 | −2.8 ^d °C | –
